Experimental data reported in article PMC6269819, “Evaluation of the Biological Activity of Naturally Occurring 5,8-Dihydroxycoumarin” (Molecules, 2013).
Marks after values point to notes of the source that are not given here.

Legend:
[1] = test system: human lymphocytes; experiment: Sister chromatid exchanges and replication index in human lymphocyte cultures in vitro; type: cell-based
Experimental: Blood samples were taken from two healthy female volunteers (donor A) and (donor B). Whole peripheral blood was grown in HEPES-buffered RPMI 1640 medium supplemented with 12% heat-inactivated newborn calf serum, 7.8 μg/mL phytohemagglutinin P, 50 μg/mL gentamycin, 10 μg/mL 5-bromo-2'-deoxyuridine. All reagents used for the cell culture were purchased from Sigma-Aldrich Chemical Co. (St. Louis, MO, USA). Cell cultures were incubated at 37 °C for 72 h. Treatment with test compounds was carried out 48 h after culture initiation and lasted for the period of 24 h. Dose range of 5,8-DHC (10 to 40 µg/mL) was based on pilot experiments (data not shown). As whole blood cultures display many properties common with the liver microsomal cytochrome P450 system, no external metabolising enzymes were added. 5,8-DHC was dissolved in ethanol and then diluted with RPMI 1640 medium to the desired concentration. Ethanol in a final concentration of 7.5µL/mL was used as a solvent control. […] Working solutions were made just before treatment. Two parallel cultures were used for each concentration of the compound tested. Two cultures were left untreated and served as a blank control. Methyl methanesulfonate (MMS) in a final concentration of 0.02 μL/mL was used as a positive control. The cultures were exposed to colchicine at a final concentration of 0.6 μg/mL for the last 3 h of incubation. The cells were harvested, hypotonically swollen in 0.075 M KCl and fixed in methanol: acetic acid (3:1). Air-dried slides were differentially stained by fluorescence plus Giemsa technique as has been described previously. Briefly, the slides were stained for 10 min. with 10 μg/mL of Hoechst 33258 dye (dissolved in 0.07 M Soerensen’s buffer, pH 6.8). Then the slides were rinsed, mounted with citrate buffer (pH 8.5), covered with cover slips and exposed to UV light (400 W mercury lamp at a distance of 15 cm) for 6–7 min. Slides were then rinsed and stained for 3–4 min. with 5% Giemsa. Cytogenetic analysis was performed on coded slides. No less than 100 first-mitotic division metaphases per culture were analysed for CAs, and no less than 50 second-division metaphases for SCEs.
Cell replicative kinetics were determined by means of a replicative index (RI = [M1 + 2M2 + 3M3]/N, where M1, M2, M3 are the numbers of cells that had undergone one, two or three cycles of replication, and N is a total number of cells scored). 300 cells were scored to determine RI

[2] = Rapeseed oil oxidation in Oxipress apparatus; conditions: for protection factor of rapeseed oil: 120 °C, oxygen 5 bars
Experimental: The samples were prepared by mixing rapeseed oil with 0.025, 0.05 and 0.1% of DHC. Five g of oil were placed in a reactor tube and thermostated at 120 °C under oxygen atmosphere (5 bars) in Oxipress apparatus (Mikrolab, Aarhus). Pressure changes which occur due to the absorption of oxygen consumed for oil oxidation were recorded. The protection factor (PF) values of rapeseed oil in case of using 5,8-DHC were calculated by the following formula: PF = IPX/IPK(3) where IPX is induction period of sample with additive (h); IPK is induction period of sample without additive (h).

[3] = Signs of systemic toxicity and mortality in treated rats
[4] = Ferric reducing/antioxidant power (FRAP) assay
Experimental: The ability of antioxidants to reduce ferric ion to the ferrous ion, (FRAP assay) is another indicator frequently used for assessing antioxidant power. Ferrous ion (Fe^2+) produced in this assay forms a blue complex (Fe^2+/TPTZ) absorbing at 593 nm. Briefly, the reagent was prepared by mixing acetate buffer (300 mM, pH 3.6), a solution of 10 mM TPTZ in 40 mM HCl, and 20 mM FeCl3 × 6H2O at 10:1:1 (v/v/v). Firstly 300 μL of freshly prepared FRAP reagent was heated to 37 °C and an absorbance (A0) of a blank reagent was read at 593 nm in a Biotek EL808 microplate reader (Winooski, VT, USA). Then 10 μL of 0.01% 5,8-DHC solution in water and 30 μL H2O were added and the absorbance (A) was recorded every 1 min during the whole monitoring period which lasted up to 30 min. The change in the absorbance (ΔA593 nm) between the final reading and A0 was calculated for each sample and related to the ΔA593 nm of a Fe^2+ reference solution which was measured simultaneously. The value is expressed in Trolox equivalents required to obtain similar reducing power.

[5] = Total phenolic compounds (TPC), Folin-Ciocalteu method
Experimental: The content of TPC was determined by the Folin–Ciocalteu method. Calibration curve was prepared by using 1 mL reference gallic acid solutions in ethanol (0.025, 0.075, 0.100, 0.175 and 0.350 mg/mL), which were mixed with 5 mL of a standard Folin-Ciocalteu reagent and diluted with distilled water (1:10) and 4 mL of 7.5% sodium carbonate solution in distilled water. The absorption was read after 30 min at 765 nm. The concentration of TPC was expressed in mg of gallic acid equivalents (GAE) per 1 g. The TPC was calculated by the following formula: C = c × V/m (2) where C is the concentration of gallic acid, determined form the calibration curve (mg/mL); V is the volume of 5,8-DHC solution (100 mL); m is the weight of 5,8-DHC (g).

For `O=c1ccc2c(O)ccc(O)c2o1` [5,8-DHC, 5,8-Dihydroxycoumarin], the “ratio of regression coefficients donor A / donor B” value [1] was 2.6 times, the “RI ± S.E.M” value ([1]; Donor A, 10 µg/mL) was 2.70 ± 0.04 and the “SCE/ cell ± S.E.M.” value ([1]; Donor A, 10 µg/mL) was 10.2 ± 0.5 SCE/cell. For the same molecule, the “RI ± S.E.M” value ([1]; Donor A, 15 µg/mL) was 2.74 ± 0.31, the “SCE/ cell ± S.E.M.” value ([1]; Donor A, 15 µg/mL) was 12.3 ± 0.6 ^b SCE/cell and the “RI ± S.E.M” value ([1]; Donor A, 20 µg/mL) was 2.65 ± 0.04 ^b. The “SCE/ cell ± S.E.M.” value ([1]; Donor A, 20 µg/mL) was 12.7 ± 0.7 ^b SCE/cell, the “RI ± S.E.M” value ([1]; Donor A, 25 µg/mL) was 2.66 ± 0.04 ^b and the “SCE/ cell ± S.E.M.” value ([1]; Donor A, 25 µg/mL) was 13.6 ± 0.6 ^b SCE/cell. For the same molecule, the “RI ± S.E.M” value ([1]; Donor A, 30 µg/mL) was 2.55 ± 0.05 ^b, the “SCE/ cell ± S.E.M.” value ([1]; Donor A, 30 µg/mL) was 13.9 ± 0.6 ^b SCE/cell and the “RI ± S.E.M” value ([1]; Donor A, 35 µg/mL) was 2.51 ± 0.05 ^b. The “SCE/ cell ± S.E.M.” value ([1]; Donor A, 35 µg/mL) was 15.0 ± 0.8 ^b SCE/cell, the “RI ± S.E.M” value ([1]; Donor A, 40 µg/mL) was 2.62 ± 0.04 ^b and the “SCE/ cell ± S.E.M.” value ([1]; Donor A, 40 µg/mL) was 19.7 ± 1.5 ^b SCE/cell. The “RI ± S.E.M” value ([1]; Donor B, 10 µg/mL) was 2.22 ± 0.05 ^b, the “SCE/ cell ± S.E.M.” value ([1]; Donor B, 10 µg/mL) was 10.1 ± 0.5 SCE/cell and the “RI ± S.E.M” value ([1]; Donor B, 15 µg/mL) was 2.35 ± 0.05. For the same molecule, the “SCE/ cell ± S.E.M.” value ([1]; Donor B, 15 µg/mL) was 10.6 ± 0.5 SCE/cell, the “RI ± S.E.M” value ([1]; Donor B, 20 µg/mL) was 2.49 ± 0.05 and the “SCE/ cell ± S.E.M.” value ([1]; Donor B, 20 µg/mL) was 10.3 ± 0.4 SCE/cell. The “RI ± S.E.M” value ([1]; Donor B, 25 µg/mL) was 2.31 ± 0.05 ^b, the “SCE/ cell ± S.E.M.” value ([1]; Donor B, 25 µg/mL) was 9.9 ± 0.5 SCE/cell and the “RI ± S.E.M” value ([1]; Donor B, 30 µg/mL) was 2.31 ± 0.06 ^b. The “SCE/ cell ± S.E.M.” value ([1]; Donor B, 30 µg/mL) was 11.8 ± 0.5 ^b SCE/cell, the “RI ± S.E.M” value ([1]; Donor B, 35 µg/mL) was 2.17 ± 0.06 ^b and the “SCE/ cell ± S.E.M.” value ([1]; Donor B, 35 µg/mL) was 11.5 ± 0.6 ^b SCE/cell. For the same molecule, the “RI ± S.E.M” value ([1]; Donor B, 40 µg/mL) was 2.07 ± 0.06 ^b, the “SCE/ cell ± S.E.M.” value ([1]; Donor B, 40 µg/mL) was 13.3 ± 0.6 ^b SCE/cell and the “dose giving statistically significant increase in the frequency of SCEs” value ([1]; donor A) was 15 µg/mL. For the same molecule, the “regression coefficient of SCE dose-response relationship” value ([1]; donor A) was 1.15, the “dose giving statistically significant increase in the frequency of SCEs” value ([1]; donor B) was at least 30 µg/mL and the “regression coefficient of SCE dose-response relationship” value ([1]; donor B) was 0.44. For the same molecule, the “concentration consistently inhibiting cell replicative kinetics” value ([1]; lymphocytes of both donors) was “higher than 25 μg/mL”, the “rapeseed oil autooxidation induction period (IP)” value ([2]; 0.025 % 5,8-DHC) was 3.81 h and the “protection factor of rapeseed oil” value ([2]; 0.025% 5,8-DHC) was 1.69. For the same molecule, the “rapeseed oil autooxidation induction period (IP)” value ([2]; 0.050 % 5,8-DHC) was 5.46 h, the “protection factor of rapeseed oil” value ([2]; 0.05% 5,8-DHC) was 2.43 and the “rapeseed oil autooxidation induction period (IP)” value ([2]; 0.100 % 5,8-DHC) was 8.46 h. For the same molecule, the “signs of systemic toxicity” value ([3]; 20 mg/kg b.w., at 2–3 h after dose administration) was “sluggishness was observed in all rats”, the “time to death after administration” value ([3]; i.p. injection 100 mg/kg) was 3 to 4 h and the toxicity and mortality ([3]; i.p. injection 100 mg/kg) was “sluggishness and death of all treated animals”. For the same molecule, the “signs of systemic toxicity” value ([3]; repeated treatment with 10 mg/kg b.w., since second dose administration) was “sluggishness”, the FRAP value [4] was 577 ± 0.0 mg/g in Trolox equivalents and the “content of total phenols (TPC)” value [5] was 581.0 ± 0.0 mg gallic acid equivalents (GAE) in 1 g.
